Source: patent US4524135A
≈ marks a conversion by molar mass, not a printed value. Where “and” joins values, the source holds several entries; their conditions need not be identical. Identical values can stand only once.

What was measured:
[1] = test system: Staphylococcus aureus X400; settings: agar dilution; methicillin-resistant strain
[2] = test system: Streptococcus pyogenes C203; assay: Agar-dilution test
[3] = test system: Staphylococcus aureus V41; assay: Agar-dilution test; type: cell-based; settings: penicillin-resistant strain
[4] = test system: Streptococcus pneumoniae Park I; assay: Agar-dilution test; type: cell-based
Streptococcus Group 9960 = settings: agar dilution
Toxicity in mice = settings: mouse, in vivo, iv, administered intravenously
Text: | ^a Administered intravenously

[5] = test system: Staphylococcus aureus ATCC 6738P; assay: Agar-plate disc-diffusion test; type: cell-based; settings: 1 mg/ml suspension in water, 7-mm disc, 24-48 hours at 25-37° C.
[6] = test system: Bacillus subtilis ATCC 6633; assay: Agar-plate disc-diffusion test; type: cell-based; settings: 1 mg/ml suspension in water, 7-mm disc, 24-48 hours at 25-37° C.
[7] = test system: Staphylococcus aureus X1.1; assay: Agar-dilution test
[8] = test system: Staphylococcus epidermidis EPI1; settings: agar dilution
[9] = test system: Streptococcus Group D X66; assay: Agar-dilution test
[10] = test system: Micrococcus luteus ATCC 9341; assay: Agar-plate disc-diffusion test; type: cell-based; settings: 1 mg/ml suspension in water, 7-mm disc, 24-48 hours at 25-37° C.
[11] = test system: Staphylococcus epidermidis EPI2; assay: Agar-dilution test
Streptococcus pyogenes = assay: Experimental bacterial infection in mice; type: in vivo; settings: two doses
Text: (§1) The results of in vivo tests to evaluate the effectiveness of the derivatives against experimental bacterial infections in mice are given in Table III. […] 81, 233-235 (1961)].

Staphylococcus aureus = assay: Experimental bacterial infection in mice; type: in vivo; settings: subcutaneous, two doses
Text: as §1

CCCCCCCCCC(=O)N[C@@H](Cc1c[nH]c2ccccc12)C(=O)N[C@@H](CC(N)=O)C(=O)N[C@@H](CC(=O)O)C(=O)N[C@@H]1C(=O)NCC(=O)N[C@@H](CCCN)C(=O)N[C@@H](CC(=O)O)C(=O)N[C@H](C)C(=O)N[C@@H](CC(=O)O)C(=O)NCC(=O)N[C@H](CO)C(=O)N[C@@H]([C@H](C)CC(=O)O)C(=O)N[C@@H](CC(=O)c2ccccc2N)C(=O)O[C@@H]1C [Example 6]
MIC [1]: 2 mg/L and 1 mg/L | MIC [2]: 0.25 mg/L and 0.125 mg/L | MIC [3]: 1 mg/L and 0.5 mg/L | MIC [4]: 1 mg/L and 0.5 mg/L | MIC (Streptococcus Group 9960): 2 mg/L (≈ 1.23 µM) | LD50 (Toxicity in mice): > 300 mg/kg | Size of Zone of Inhibition [5]: 24 mm | Size of Zone of Inhibition [6]: 20 mm | Size of Zone of Inhibition ([6]; grown on minimal nutrient agar): 29 mm | MIC [7]: 1 mg/L and 0.5 mg/L | MIC [8]: 2 mg/L and 1 mg/L | MIC [9]: 16 mg/L (≈ 9.87 µM) | Size of Zone of Inhibition [10]: 22 mm | MIC [11]: 1 mg/L and 0.5 mg/L | ED50 (Streptococcus pyogenes; oral): 66 mg/kg × 2 | ED50 (Streptococcus pyogenes; subcutaneous): 0.03 mg/kg × 2 | ED50 (Staphylococcus aureus): 0.28 mg/kg × 2

CCCCCCCCCC(=O)N[C@@H](Cc1ccccc1)C(=O)N[C@@H](Cc1c[nH]c2ccccc12)C(=O)N[C@@H](CC(N)=O)C(=O)N[C@@H](CC(=O)O)C(=O)N[C@@H]1C(=O)NCC(=O)N[C@@H](CCCN)C(=O)N[C@@H](CC(=O)O)C(=O)N[C@H](C)C(=O)N[C@@H](CC(=O)O)C(=O)NCC(=O)N[C@H](CO)C(=O)N[C@@H]([C@H](C)CC(=O)O)C(=O)N[C@@H](CC(=O)c2ccccc2N)C(=O)O[C@@H]1C [Example 7, NTrp-[N-(n-Decanoyl)-L-phenylalanyl]-A-21978C Nucleus]
MIC [1]: 1 mg/L (≈ 0.566 µM) | MIC [2]: 0.25 mg/L (≈ 0.141 µM) | MIC [3]: 0.5 mg/L (≈ 0.283 µM) | MIC [4]: 0.5 mg/L (≈ 0.283 µM) | MIC (Streptococcus Group 9960): 2 mg/L (≈ 1.13 µM) | LD50 (Toxicity in mice): 600 mg/kg | Size of Zone of Inhibition [5]: 30 mm | Size of Zone of Inhibition [6]: 22 mm | Size of Zone of Inhibition ([6]; grown on minimal nutrient agar): 31 mm | MIC [7]: 0.5 mg/L (≈ 0.283 µM) | MIC [8]: 1 mg/L (≈ 0.566 µM) | MIC [9]: 8 mg/L (≈ 4.53 µM) | Size of Zone of Inhibition [10]: 24 mm | MIC [11]: 0.5 mg/L (≈ 0.283 µM) | ED50 (Streptococcus pyogenes; oral): > 200 mg/kg × 2 | ED50 (Streptococcus pyogenes; subcutaneous): 0.39 mg/kg × 2 | ED50 (Staphylococcus aureus): 0.7 mg/kg × 2 and 0.98 mg/kg × 2

CCCCCCCCCCCCOc1ccc(C(=O)N[C@@H](Cc2c[nH]c3ccccc23)C(=O)N[C@H](CC(N)=O)C(=O)N[C@@H](CC(=O)O)C(=O)N[C@@H]2C(=O)NCC(=O)N[C@@H](CCCN)C(=O)N[C@@H](CC(=O)O)C(=O)N[C@H](C)C(=O)N[C@@H](CC(=O)O)C(=O)NCC(=O)N[C@H](CO)C(=O)N[C@@H]([C@H](C)CC(=O)O)C(=O)N[C@@H](CC(=O)c3ccccc3N)C(=O)O[C@@H]2C)cc1 [Example 8, NTrp -p-(n-dodecyloxy)benzoyl-A-21978C Nucleus]
MIC [1]: 2 mg/L (≈ 1.14 µM) | MIC [2]: 0.25 mg/L (≈ 0.142 µM) | MIC [3]: 1 mg/L (≈ 0.57 µM) | MIC (Streptococcus Group 9960): 1 mg/L (≈ 0.57 µM) | LD50 (Toxicity in mice): 67.5 mg/kg | Size of Zone of Inhibition [5]: 20 mm | Size of Zone of Inhibition [6]: 13 mm | Size of Zone of Inhibition ([6]; grown on minimal nutrient agar): 20 mm | MIC [7]: 1 mg/L (≈ 0.57 µM) | MIC [8]: 4 mg/L (≈ 2.28 µM) | MIC [9]: 2 mg/L (≈ 1.14 µM) | Size of Zone of Inhibition [10]: 18 mm | MIC [11]: 2 mg/L (≈ 1.14 µM) | ED50 (Streptococcus pyogenes; oral): > 200 mg/kg × 2 | ED50 (Streptococcus pyogenes; subcutaneous): 0.31 mg/kg × 2 | ED50 (Staphylococcus aureus): 3.35 mg/kg × 2
